Reference: patent US5147871A, “Anti-bacterial cephalosporin compounds” (Hoffmann La-Roche, Inc., priority 1991, dated 1992)
Structures can show the parent of a compound that is named as a salt. Where two headings read alike, the source gives them in different places.

Experiments:
Type in all cases: cell-based
[1] = test system: P. aeruginosa 503-56; assay: In vitro MIC, Broth Dilution Method, P. aeruginosa 503-56; details: Pseudomonas aeruginosa, 50356
Text: (§1) The in vitro activity of the compounds of the present invention as measured by the Minimum Inhibitory Concentration in micrograms/ml utilizing the Agar Well Diffusion Method or Broth Dilution Method against a variety of Gram-positive and Gram-negative organisms is as follows:
(§2) In vitro MIC (μg/ml) Broth Dilution Method

[2] = test system: E. cloacae 7099; assay: In vitro MIC, Broth Dilution Method, E. cloacae 7099; details: Enterobacter cloacae
[3] = test system: P. aeruginosa Stone 130; assay: In vitro MIC, Broth Dilution Method, P. aeruginosa Stone 130; details: Pseudomonas aeruginosa, STONE130
Text: as §1, §2

[4] = test system: P. mirabilis 190; assay: In vitro MIC, Broth Dilution Method, P. mirabilis 190; details: Proteus mirabilis
[5] = test system: E. cloacae 9570A; assay: In vitro MIC, Broth Dilution Method, E. cloacae 9570A; details: Enterobacter cloacae
Text: as §1, §2

[6] = test system: K. pneumoniae A; assay: In vitro MIC, Broth Dilution Method, K. pneumoniae A; details: Klebsiella pneumoniae
[7] = test system: E. cloacae 214; assay: In vitro MIC, Broth Dilution Method, E. cloacae 214; details: Enterobacter cloacae
Text: as §1, §2

[8] = test system: P. vulgaris ATCC 6380; assay: In vitro MIC, Broth Dilution Method, P. vulgaris ATCC 6380; details: Proteus vulgaris
Text: as §1, §2

[9] = test system: S. marcescens SM; assay: In vitro MIC, Broth Dilution Method, S. marcescens SM; details: Serratia marcescens
Text: as §1, §2

[10] = test system: E. coli 48; assay: In vitro MIC, Broth Dilution Method, E. coli 48; details: Escherichia coli
[11] = test system: S. aureus Smith; assay: In vitro MIC, Broth Dilution Method, S. aureus Smith; details: Staphylococcus aureus
[12] = test system: S. aureus 95; assay: In vitro MIC, Broth Dilution Method, S. aureus 95; details: Staphylococcus aureus
Text: as §1, §2

[13] = test system: E. cloacae 948-1; assay: In vitro MIC, Broth Dilution Method, E. cloacae 948-1; details: Enterobacter cloacae, 9481
Text: as §1, §2

[14] = test system: E. cloacae 2367-2; assay: In vitro MIC, Broth Dilution Method, E. cloacae 2367-2; details: Enterobacter cloacae, 23672
Text: as §1, §2

[15] = ATCC6380, P. vulgaris ATCC 6380, Broth Dilution Method, read-out: In vitro MIC

SMILES	MIC [1] [µg/mL]	MIC [2] [µg/mL]	MIC [3] [µg/mL]	MIC [4] [µg/mL]	MIC [5] [µg/mL]	MIC [6] [µg/mL]	MIC [7] [µg/mL]	MIC [8, 15] [µg/mL]	MIC [9] [µg/mL]	MIC [10] [µg/mL]	MIC [11] [µg/mL]	MIC [12] [µg/mL]	MIC [13] [µg/mL]	MIC [14] [µg/mL]	MIC ([8]; ATCC6380, read-out: In vitro MIC) [µg/mL]
CCn1cc(C(=O)OCC2=C(C(=O)O)N3C(=O)[C@@H](NC(=O)COc4ccccc4)[C@H]3SC2)c(=O)c2ccc(C)nc21 [Compound A, [6R-(6alpha,7beta)]-3-[[[(1-Ethyl-1,4-dihydro-7-methyl-4-oxo-1,8-naphthydrin-3-yl)carbonyl]oxy]methyl]-8-oxo-7-[(phenoxyacetyl)amino]-5-thia-1-azabicyclo[4.2.0]oct-2-ene-2-carboxylic acid hydrate]	128	16	128	8	64	16	128	8	16	32	0.25	–	–	–	–
CCn1cc(C(=O)OCC2=C(C(=O)O)N3C(=O)[C@@H](NC(=O)COc4ccccc4)[C@H]3SC2)c(=O)c2cc3c(cc21)OCO3 [Compound B, [6R-(6alpha,7beta)]-3-[[[(5-Ethyl-5,8-dihydro-8-oxo-1,3-dioxolo[4,5-g]quinolin-7-yl)carbonyl]oxy]methyl]-8-oxo-7-[(phenoxyacetyl)amino]-5-thia-1-azabicyclo[4.2.0]oct-2-ene-2-carboxylic acid monosodium salt]	64	–	32	–	2	1	2	0.5	1	2	0.25	4	2	1	–
CCn1cc(C(=O)OCC2=C(C(=O)O)N3C(=O)[C@@H](NC(=O)/C(=N\OC)c4csc(N)n4)[C@H]3SC2)c(=O)c2ccc(C)nc21 [Compound C, [6R-(6alpha,7beta)(Z)]-7-[[(2-Amino-4-thiazolyl) (methoxyimino)acetyl]amino]-3-[[[(1-ethyl-1,4-dihydro-7-methyl-4-oxo-1,8-naphthyridin-3-yl)carbonyl]oxy]methyl]-8-oxo-5-thia-1-azabicyclo [4.2.0]oct-2-ene-2-carboxylic acid sodium salt]	128	8	128	0.16	2	–	8	0.25	1	0.5	2	8	8	16	–
CCn1cc(C(=O)OCC2=C(C(=O)O)N3C(=O)[C@@H](NC(=O)/C(=N\OC)c4csc(N)n4)[C@H]3SC2)c(=O)c2cc3c(cc21)OCO3 [Compound D, [6R-(6alpha,7beta)(Z)]-7-[[(2-Amino-4-thiazolyl) (methoxyimino)acetyl]amino]-3-[[[(5-ethyl-5,8-dihydro-8-oxo-1,3-dioxolo[4,5-g]quinolin-7-yl)carbonyl]oxy]methyl]-8-oxo-5-thia-1-azabicyclo [4.2.0]oct-2-ene-2-carboxylic acid sodium salt]	32	0.5	16	0.008	1	–	0.5	–	0.5	–	2	4	1	2	0.063
CCn1cc(C(=O)OCC2=C(C(=O)O)N3C(=O)[C@@H](NC(=O)COc4ccccc4)[C@H]3SC2)c(=O)c2cc(F)c(N3CCN(C=O)CC3)cc21 [Compound E, [6R-(6alpha,7beta)]-3-[[[[1-Ethyl-6-fluoro-1,4-dihydro-7-(4-formyl-1-piperazinyl)-4-oxo-quinolin-3-yl]-carbonyl]oxy]methyl-8-oxo-7-[(phenoxyacetyl)amino]-5-thia-1-azabicyclo[4.2.0]oct-2-ene-2-carboxylic acid sodium salt]	32	2	16	0.5	8	2	8	4	4	–	0.063	2	8	4	–
CCn1cc(C(=O)OCC2=C(C(=O)O)N3C(=O)[C@@H](NC(=O)Cc4cccs4)[C@H]3SC2)c(=O)c2cc3c(cc21)OCO3 [Compound F, [6R-(6alpha,7beta)]-3-[[[(5-Ethyl-5,8-dihydro-8-oxo-1,3-dioxolo[4,5-g]quinolin-7-yl)carbonyl]oxy]methyl]-8-oxo-7-[(2-thienylacetyl)amino]-5-thia-1-azabicyclo-[4.2.0]oct-2-ene-2-carboxylic acid sodium salt]	64	–	32	0.5	2	1	2	0.5	1	2	–	4	1	1	–
CCn1cc(C(=O)OCC2=C(C(=O)O)N3C(=O)[C@@H](NC(=O)Cc4cccs4)[C@H]3SC2)c(=O)c2cc(F)c(N3CCN(C=O)CC3)cc21 [Compound G, [6R-(6alpha,7beta)]-3-[[[[1-Ethyl-6-fluoro-1,4-dihydro-7-(4-formyl-1-piperazinyl)-4-oxoquinolin-3-yl]-carbonyl]oxy]methyl]-7-[(2-thienylacetyl)amino]-5-thia-1-azabicyclo[4.2.0]oct-2-ene-2-carboxylic acid sodium salt]	64	2	32	4	8	4	64	4	4	8	0.25	4	8	32	–
CCn1cc(C(=O)OCC2=C(C(=O)O)N3C(=O)[C@@H](NC(=O)COc4ccccc4)[C@H]3SC2)c(=O)c2cc(F)c(N3CCCC3)cc21 [Compound H, [6R-(6alpha,7beta)]-3-[[[[1-Ethyl-6-fluoro-1,4-dihydro-7-(1-pyrrolidinyl)-4-oxo-quinolin-3-yl]carbonyl]oxy]methyl]-8-oxo-7-[(phenoxyacetyl)amino]-5-thia-1-azabicyclo[4.2.0]oct-2-ene-2-carboxylic acid sodium salt]	64	2	32	0.5	32	32	32	32	32	32	0.25	0.5	32	32	–
CCn1cc(C(=O)OCC2=C(C(=O)O)N3C(=O)[C@@H](NC(=O)/C(=N\OC)c4csc(N)n4)[C@H]3SC2)c(=O)c2cc(F)c(N3CCCC3)cc21 [Compound I, [6R-(6alpha,7beta)(Z)]-7-[[(2-Amino-4-thiazolyl) (methoxyimino)acetyl]amino]-3-[[[[1-ethyl-6-fluoro-1,4-dihydro-7-(1-pyrrolidinyl)-4-oxoquinolin-3-yl]-carbonyl]oxy]methyl]-8-oxo-5-thia-1-azabicyclo[4.2.0]oct-2-ene-2-carboxylic acid sodium salt]	32	2	8	0.031	2	0.5	4	0.5	1	0.5	0.25	0.5	4	4	–
